{"source": "patent US20040067850A1", "about": "“Agricultural and horticultural composition” (priority 2001, published 2004)", "tested_on": "Oat", "test": "Gotland field trial, foliage application: manganese deficiency assessment in oat", "assay_type": "in vivo", "conditions": "4 kg/ha, scale 0 = no deficiency, 100 = all plants", "procedure": "Oat was grown on a location on Gotland, Sweden, with severe manganese conditions. […] The invention, MicroplanTM Manganese (150 gram manganese complex bound per liter, amino acids used were methionin and lysine, respectively), was applied to the foliage at growing stage DC 25 (early tillering). […] The same amount of manganese was applied. The assessment, shown in the table 7 below, were done one week and two weeks after application. According to the following procedure: Manganese deficiency 0-100, scale 0=no deficiency 100=all plants/leaves showing deficiency (=yellow leaves).", "data": [{"smiles": "O=S(=O)([O-])[O-].[Mn+2]", "note": "[Manganese sulphate]", "values": [{"measurement": "Manganese deficiency 0-100 (plant/leaf area with symptoms)", "setting": "6/7-2001", "value": 28}, {"measurement": "Manganese deficiency 0-100 (plant/leaf area with symptoms)", "setting": "16/7-2001", "value": 25}]}]}
